Target: T1, KRAS G12C 1-169, his-tagged protein, GDP-loaded (Homo sapiens, UniProt P01116, G12C)
T1 construct: KRAS G12C 1-169, his-tagged protein, GDP-loaded
Assay: Covalent binding (% modification) to KRAS G12C by mass spectrometry
Settings: covalent binding to KRAS G12C after a three minute incubation period
Protocol: Test compounds were prepared as 10 mM stock solutions in DMSO (Fisher cat # BP-231-100). KRAS G12C 1-169, his-tagged protein, GDP-loaded was diluted to 2 μm in buffer (20 mM Hepes, 150 mM NaCl, 1 mM MgCl2). Compounds were tested for activity as follows:
Compounds were diluted to 50× final test concentration in DMSO in 96-well storage plates. Compound stock solutions were vortexed before use and observed carefully for any sign of precipitation. Dilutions were as follow: • For 100 μM final compound concentration, compounds were diluted to 5000 μM (5 μl 10 mM compound stock+5 μl DMSO and mixed well by pipetting. • For 30 μM final compound concentration, compounds were diluted to 1500 μM (3 μl 10 mM compound stock+17 μl DMSO) and mixed well by pipetting. • For 10 μM final compound concentration, compounds were diluted to 500 μM (2 μl 10 mM compound stock+38 μl DMSO) and mixed well by pipetting. 49 μl of the stock protein solution was added to each well of a 96-well PCR plate (Fisher cat #1423027). 1 μl of the diluted 50× compounds were added to appropriate wells in the PCR plate using 12-channel pipettor. Reactions were mixed carefully and thoroughly by pipetting up/down with a 200·1 multi-channel pipettor. […] 5 μl of 2% formic acid (Fisher cat # A117) in DI H2O was then added to each well followed by mixing with a pipette. The plate was then resealed with aluminum seal and stored on dry ice until analyzed as described below.
The above described assays were analyzed by mass spectrometry according to one of the following two procedures:
The MS instrument is set to positive polarity, 2 GHz resolution, and low mass (1700) mode and allowed to equilibrate for 30 minutes. The instrument is then calibrated, switched to acquisition mode and the appropriate method loaded.
After another 30 minute equilibration time, a blank batch (i.e., buffer) is run to ensure equipment is operating properly. The samples are thawed at 37° C. for 10 minutes, briefly centrifuged, and transfer to the bench top. Wells A1 and H12 are spiked with 1 uL 500 uM internal standard peptide, and the plates centrifuged at 2000×g for 5 minutes. The method is then run and masses of each individual well recorded.
The masses (for which integration data is desired) for each well are pasted into the platemap and exported from the analysis. Masses for the internal standards are exported as well. The data at 50 ppm is extracted for the +19 charge state, and identity of well A1 is assigned using the internal standard spike and integrated. Peak data is exported as a TOF list and the above steps are repeated individually, for the +20, 21, 22, 23, 24, and 25 charge states.
The masses and peak intensities of KRAS G12C protein species were measured using a Dionex RSLCnano system (Thermo Scientific) connected to a Q Exactive Plus mass spectrometer (Thermo Scientific).
[…] of sample was each loaded onto a Aeris™ 3.6 μm WIDEPORE C4 200 Å, LC Column 50×2.1 mm column maintained at 40° C. at a flow rate of 600 μl min^−1 with […] (0.1% formic acid in acetonitrile). The liquid chromatography conditions were 20% solvent B for 1 min, 20% to 60% solvent B for 1.5 min, 60% to 90% solvent for 0.5 min, 90% solvent B for 0.2 min, 90% to 20% solvent B for 0.2 min, and then equilibrated for 1.6 min before the following sample injection. The flow rate was maintained at 600 μl min^−1 throughout the sample analysis.
The mass spectrometer was operated in profile mode at a resolution of 17500, 5 microscans, using 50 msec max injection time and an AGC target of 1e6, and a full mass range from 800-1850 m/z was recorded. The HCD trapping gas was optimized for maximum sensitivity for intact proteins. The ionization method was electrospray ionization, which used a spray voltage of 4 kV, sheath gas flow set to 50 au, auxiliary gas flow set to 10 au and sweep gas flow set to 1 au. […]

Structure (SMILES)	Binding %
C=CC(=O)N1C[C@H](C)N(c2nc(N3CC(N(CC)CC)C3)nc3c(F)c(-c4c(C)ccc5[nH]ncc45)c(Cl)cc23)C[C@H]1C (atropisomer, axis not shown) [Compound 151, 1-((2R,5S)-4-(6-chloro-2-(3-(diethylamino)azetidin-1-yl)-8-fluoro-7-((R)-5-methyl-1H-indazol-4-yl)quinazolin-4-yl)-2,5-dimethyl-piperazin-1-yl) prop-2-en-1-one]	+++ (+++ indicates binding activity greater than 90%)
C=CC(=O)N1C[C@H](C)N(c2nc(N3CC(N(CC)CC)C3)nc3c(F)c(-c4c(C)ccc5[nH]ncc45)c(Cl)cc23)C[C@H]1C (atropisomer, axis not shown) [Compound 152, 1-((2R,5S)-4-(6-chloro-2-(3-(diethylamino)azetidin-1-yl)-8-fluoro-7-((S)-5-methyl-1H-indazol-4-yl)quinazolin-4-yl)-2,5-dimethyl-piperazin-1-yl) prop-2-en-1-one]	+ (+ indicates binding activity greater than 0% and up to 50%)
C=CC(=O)N1C[C@H](C)N(c2nc(N3CC(N(C)CC)C3)nc3c(F)c(-c4c(O)cccc4F)c(Cl)cc23)C[C@H]1C (atropisomer, axis not shown) [Compound 154, 1-((2R,5S)-4-(6-chloro-2-(3-(ethyl(methyl)amino)azetidin-1-yl)-8-fluoro-7-((S)-2-fluoro-6-hydroxyphenyl)quinazolin-4-yl)-2,5-dimethyl-piperazin-1-yl) prop-2-en-1-one]	+++ (+++ indicates binding activity greater than 90%)
C=CC(=O)N1C[C@H](C)N(c2nc(N3CC(N(C)CC)C3)nc3c(F)c(-c4c(O)cccc4F)c(Cl)cc23)C[C@H]1C (atropisomer, axis not shown) [Compound 155, 1-((2R,5S)-4-(6-chloro-2-(3-(ethyl(methyl)amino)azetidin-1-yl)-8-fluoro-7-((R)-2-fluoro-6-hydroxyphenyl)quinazolin-4-yl)-2,5-dimethyl-piperazin-1-yl) prop-2-en-1-one]	+ (+ indicates binding activity greater than 0% and up to 50%)
C=CC(=O)N1C[C@H](C)N(c2nc(OCCN(CC)CC)nc3c(F)c(-c4c(C)ccc5cn[nH]c45)c(Cl)cc23)C[C@H]1C (atropisomer, axis not shown) [Compound 156, 1-((2R,5S)-4-(6-chloro-2-(2-(diethylamino)ethoxy)-8-fluoro-7-((R)-6-methyl-1H-indazol-7-yl)quinazolin-4-yl)-2,5-dimethyl-piperazin-1-yl) prop-2-en-1-one]	+++ (+++ indicates binding activity greater than 90%)
C=CC(=O)N1C[C@H](C)N(c2nc(N3CC(N(CC)CC)C3)nc3c(F)c(-c4c(O)cccc4F)c(Cl)cc23)C[C@H]1C (atropisomer, axis not shown) [Compound 175, 1-((2R,5S)-4-(6-chloro-2-(3-(diethylamino)azetidin-1-yl)-8-fluoro-7-((S)-2-fluoro-6-hydroxyphenyl)quinazolin-4-yl)-2,5-dimethyl-piperazin-1-yl) prop-2-en-1-one]	+++ (+++ indicates binding activity greater than 90%)
C=CC(=O)N1C[C@H](C)N(c2nc(N3CC(N(CC)CC)C3)nc3c(F)c(-c4c(O)cccc4F)c(Cl)cc23)C[C@H]1C (atropisomer, axis not shown) [Compound 176, 1-((2R,5S)-4-(6-chloro-2-(3-(diethylamino)azetidin-1-yl)-8-fluoro-7-((R)-2-fluoro-6-hydroxyphenyl)quinazolin-4-yl)-2,5-dimethyl-piperazin-1-yl) prop-2-en-1-one]	+ (+ indicates binding activity greater than 0% and up to 50%)
[2H]C([2H])([2H])N(C1CN(c2nc(N3C[C@@H](C)N(C(=O)C=C)C[C@@H]3C)c3cc(Cl)c(-c4c(O)cccc4F)c(F)c3n2)C1)C([2H])([2H])[2H] (atropisomer, axis not shown) [Compound 207, 1-((2R,5S)-4-(2-(3-(bis(triduetero-methyl)amino)azetidin-1-yl)-6-chloro-8-fluoro-7-((S)-2-fluoro-6-hydroxyphenyl)quinazolin-4-yl)-2,5-dimethyl-piperazin-1-yl) prop-2-en-1-one]	+++ (+++ indicates binding activity greater than 90%)
[2H]C([2H])([2H])N(C1CN(c2nc(N3C[C@@H](C)N(C(=O)C=C)C[C@@H]3C)c3cc(Cl)c(-c4c(O)cccc4F)c(F)c3n2)C1)C([2H])([2H])[2H] (atropisomer, axis not shown) [Compound 212, 1-((2R,5S)-4-(2-(3-(bis(triduetero-methyl)amino)azetidin-1-yl)-6-chloro-8-fluoro-7-((R)-2-fluoro-6-hydroxyphenyl)quinazolin-4-yl)-2,5-dimethyl-piperazin-1-yl) prop-2-en-1-one]	+ (+ indicates binding activity greater than 0% and up to 50%)
C=CC(=O)N1C[C@H](C)N(c2nc(N3CC(N(C)C)C3)nc3c(F)c(-c4cc(O)cc5ccccc45)c(Cl)cc23)C[C@H]1C (atropisomer, axis not shown) [Compound 219, 1-((2R,5S)-4-(6-chloro-2-(3-(dimethylamino)azetidin-1-yl)-8-fluoro-7-((S)-3-hydroxynaphthalen-1-yl)quinazolin-4-yl)-2,5-dimethyl-piperazin-1-yl) prop-2-en-1-one]	+++ (+++ indicates binding activity greater than 90%)
C=CC(=O)N1C[C@H](C)N(c2nc(N3CC(N(C)C)C3)nc3c(F)c(-c4cc(O)cc5ccccc45)c(Cl)cc23)C[C@H]1C (atropisomer, axis not shown) [Compound 220, 1-((2R,5S)-4-(6-chloro-2-(3-(dimethylamino)azetidin-1-yl)-8-fluoro-7-((R)-3-hydroxynaphthalen-1-yl)quinazolin-4-yl)-2,5-dimethyl-piperazin-1-yl) prop-2-en-1-one]	+ (+ indicates binding activity greater than 0% and up to 50%)
[2H]C([2H])([2H])N(C1CN(c2nc(N3C[C@@H](C)N(C(=O)C=C)C[C@@H]3C)c3cc(Cl)c(-c4c(C)ccc5[nH]ncc45)c(F)c3n2)C1)C([2H])([2H])[2H] (atropisomer, axis not shown) [Compound 226, 1-((2R,5S)-4-(6-chloro-2-(3-(bis(triduetero-methyl)amino)azetidin-1-yl)-8-fluoro-7-((R)-5-methyl-1H-indazol-4-yl)quinazolin-4-yl)-2,5-dimethyl-piperazin-1-yl) prop-2-en-1-one]	+++ (+++ indicates binding activity greater than 90%)
[2H]C([2H])([2H])N(C1CN(c2nc(N3C[C@@H](C)N(C(=O)C=C)C[C@@H]3C)c3cc(Cl)c(-c4c(C)ccc5[nH]ncc45)c(F)c3n2)C1)C([2H])([2H])[2H] (atropisomer, axis not shown) [Compound 227, 1-((2R,5S)-4-(6-chloro-2-(3-(bis(triduetero-methyl)amino)azetidin-1-yl)-8-fluoro-7-((S)-5-methyl-1H-indazol-4-yl)quinazolin-4-yl)-2,5-dimethyl-piperazin-1-yl) prop-2-en-1-one]	+ (+ indicates binding activity greater than 0% and up to 50%)
[2H]C([2H])([2H])N(C1CN(c2nc(N3C[C@@H](C)N(C(=O)C=C)C[C@@H]3C)c3cc(Cl)c(-c4cc(O)cc5ccccc45)c(F)c3n2)C1)C([2H])([2H])[2H] (atropisomer, axis not shown) [Compound 228]	+++ (+++ indicates binding activity greater than 90%)

— patent US10646488B2 (Araxes Pharma LLC, priority 2016, dated 2020)
